Experimental data taken from US4512924A, “Pyridazo[1,2-a][1,2]diazepines” (Hoffmann-La Roche Inc., priority 1982, dated 1985).

Target: T1, angiotensin converting enzyme (Oryctolagus cuniculus, UniProt P12822)
T1 sequence (P12822 34-1310): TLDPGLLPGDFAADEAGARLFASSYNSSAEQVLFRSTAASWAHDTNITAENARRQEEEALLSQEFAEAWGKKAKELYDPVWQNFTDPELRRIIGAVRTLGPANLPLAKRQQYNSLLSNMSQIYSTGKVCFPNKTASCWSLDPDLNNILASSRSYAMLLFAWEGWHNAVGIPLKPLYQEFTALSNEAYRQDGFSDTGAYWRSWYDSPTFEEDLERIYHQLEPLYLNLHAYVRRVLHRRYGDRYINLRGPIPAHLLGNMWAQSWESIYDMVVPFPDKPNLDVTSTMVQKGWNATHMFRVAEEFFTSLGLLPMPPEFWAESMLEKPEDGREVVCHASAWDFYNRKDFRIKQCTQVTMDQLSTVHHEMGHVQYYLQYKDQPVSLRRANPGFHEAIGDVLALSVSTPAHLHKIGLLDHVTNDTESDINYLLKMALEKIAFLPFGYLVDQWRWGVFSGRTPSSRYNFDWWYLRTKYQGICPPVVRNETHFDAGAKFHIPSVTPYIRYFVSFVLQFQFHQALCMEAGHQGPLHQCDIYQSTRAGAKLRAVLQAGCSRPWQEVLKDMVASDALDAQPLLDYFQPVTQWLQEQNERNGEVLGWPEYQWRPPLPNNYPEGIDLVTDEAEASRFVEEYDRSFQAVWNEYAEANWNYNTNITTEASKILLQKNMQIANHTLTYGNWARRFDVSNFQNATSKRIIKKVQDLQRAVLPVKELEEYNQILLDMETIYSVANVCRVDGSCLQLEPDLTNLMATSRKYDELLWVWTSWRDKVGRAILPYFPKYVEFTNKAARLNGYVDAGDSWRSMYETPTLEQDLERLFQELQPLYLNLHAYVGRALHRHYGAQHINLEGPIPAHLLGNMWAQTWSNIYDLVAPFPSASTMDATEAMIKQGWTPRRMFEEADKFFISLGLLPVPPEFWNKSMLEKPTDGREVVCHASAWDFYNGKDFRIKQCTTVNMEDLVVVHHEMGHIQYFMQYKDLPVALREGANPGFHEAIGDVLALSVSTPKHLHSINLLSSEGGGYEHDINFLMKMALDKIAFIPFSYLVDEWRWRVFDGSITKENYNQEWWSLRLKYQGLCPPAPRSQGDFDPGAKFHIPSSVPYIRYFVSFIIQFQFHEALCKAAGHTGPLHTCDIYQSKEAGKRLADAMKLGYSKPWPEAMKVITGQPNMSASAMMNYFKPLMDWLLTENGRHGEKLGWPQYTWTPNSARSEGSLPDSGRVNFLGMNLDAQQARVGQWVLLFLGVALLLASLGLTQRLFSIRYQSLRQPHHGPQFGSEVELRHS
Test: in vitro inhibition of angiotensin converting enzyme (cleavage of hippuryl-histidyl-leucine)
Assay type: biochemical
Conditions: hippuryl-histidyl-leucine 2 mM, potassium phosphate buffer pH 8.3, 100 mM, NaCl 300 mM, 24 minutes at 37° C., read-out: IC50 (concentration of test substance which reduces by 50% the cleavage of hippuryl-histidyl-leucine by angiotensin converting enzyme)
Method: The activity of the present compounds in inhibiting angiotensin converting enzyme in vitro can be determined by the following test.
The method used is based on the method of Cushman and Cheung (Biochem. Pharmacol., 20. 1637-1648) incorporating the modifications introduced by Hayakari et al (Anal. Biochem., 84. 361-369). The substrate (hippuryl-histidyl-leucine, 2 mM) is incubated with angiotensin converting enzyme in the presence or absence of various concentrations of test substance in potassium phosphate buffer (pH 8.3; 100 mM) containing sodium chloride (300 mM) for 24 minutes at 37° C. (total value 500 μl). (If the test substance is an ester, it is appropriate to cleave it by means of hog liver esterase before carrying out the test). The reaction is terminated by the addition of 3 ml of potassium phosphate buffer (pH 8.3; 200 mM) at 0° C. 2,4,6-Trichloro-s-triazine (3%) in 1.5 ml of dioxane is added and the mixture is agitated until the yellow chromophore has developed fully. The samples are then centrifuged to remove any precipitate which has formed. The yellow chromophore formed by the reaction of the 2,4,6-trichloro-s-triazine with free hippuric acid is measured spectrophotometrically at 382 nm. IC50 values are defined as the concentration of test substance which reduces by 50% the cleavage of hippuryl-histidyl-leucine by angiotensin converting enzyme under the aforementioned conditions.
The results obtained in the foregoing test using representative compounds of formula I as the test substance are compiled in the following Table.

SMILES	IC50 [nM]
O=C(O)C(CCCc1ccccc1)N[C@H]1CCC(=O)N2CCC[C@@H](C(=O)O)N2C1=O (mixture of isomers) [Compound D, 9(S)-[1(R and S)-carboxy-4-phenylbutylamino]-octahydro-6,10-dioxo-6H-pyridazo[1,2-a][1,2]diazepine-1(S)-carboxylic acid]	11
O=C(O)C(Cc1ccccc1)N[C@H]1CCC(=O)N2CCC[C@@H](C(=O)O)N2C1=O (mixture of isomers) [Compound E, 9(S)-[1(R and S)-carboxy-2-phenylethylamino]-octahydro-6,10-dioxo-6H-pyridazo[1,2-a][1,2]diazepine-1(S)-carboxylic acid]	26
CC(C)CCC(N[C@H]1CCC(=O)N2CCC[C@@H](C(=O)O)N2C1=O)C(=O)O (mixture of isomers) [Compound F, 9(S)-[1(R and S)-carboxy-4-methylpentylamino]-octahydro-6,10-dioxo-6H-pyridazo[1,2-a][1,2]diazepine-1(S)-carboxylic acid]	12
O=C(O)C(CCc1ccccc1)N[C@H]1CC(=O)N2CCCC(C(=O)O)N2C1=O (single isomer, unassigned) [Compound B]	22

Continued by falling IC50, values first:

IC50 [nM]	SMILES
55	O=C(O)C(CCc1ccccc1)NC1CCN2CCCC(C(=O)O)N2C1=O (racemic) [Compound C, 8-(1-Carboxy-3-phenylpropylamino)-octahydro-9-oxopyridazo[1,2-a]pyridazine-1-carboxylic acid]
4.2	O=C(O)C(CCc1ccccc1)N[C@H]1CCC(=O)N2CCC[C@@H](C(=O)O)N2C1=O (single isomer, unassigned) [Compound A]
